Patent US20250368649A1, “TETRAHYDROPYRIDOPYRIMIDINE PAN-KRAS INHIBITORS” (Mirati Therapeutics, Inc., priority 2022, published 2025)

Columns and labels:
KRas WT = KRas WT (Homo sapiens, UniProt P01116); assay: KRas binding assay (TR-FRET displacement), KRas WT; details: TR-FRET displacement
KRas G12C = KRas G12C (Homo sapiens, UniProt P01116, G12C); assay type: binding; details: TR-FRET displacement, read-out: Binding to KRas (IC50 nM) G12C
KRas G12S = KRas G12S (Homo sapiens, UniProt P01116, G12S); assay type: binding; details: TR-FRET displacement, read-out: Binding to KRas (IC50 nM) G12S
Sequence of KRas G12S (P01116 1-169 isoform P01116-2 G12S): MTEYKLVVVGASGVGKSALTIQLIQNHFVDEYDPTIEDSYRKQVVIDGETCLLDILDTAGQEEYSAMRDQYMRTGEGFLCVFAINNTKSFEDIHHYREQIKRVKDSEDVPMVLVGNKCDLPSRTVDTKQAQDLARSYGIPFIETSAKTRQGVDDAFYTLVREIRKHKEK

MKN1 cells = assay: Inhibition of KRas-mediated phosphorylation of ERK (Cisbio HTRF pERK), MKN1 cells; assay type: cell-based; details: Homo sapiens
How it was run: (§1)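 On the first day, plate 6,000 cells into each well in RPMI medium with 10% fetal bovine serum.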

PSN1 cells = assay: Inhibition of KRas-mediated phosphorylation of ERK (Cisbio HTRF pERK), PSN1 cells; assay type: cell-based; details: Homo sapiens, PSN1, 3 h
How it was run: as §1

ASPC1 cells = assay: Inhibition of KRas-mediated phosphorylation of ERK (Cisbio HTRF pERK), ASPC1 cells; assay type: cell-based; details: Homo sapiens, AsPC-1 cells; for IC50: ASPC1, 3 h, 3 hr compound incubation
H727 cells = assay: Inhibition of KRas-mediated phosphorylation of ERK (Cisbio HTRF pERK), H727 cells; assay type: cell-based; details: Homo sapiens; for IC50: NCI-H727, 3 h, 3 hr compound incubation
A549 cells = assay: Inhibition of KRas-mediated phosphorylation of ERK (Cisbio HTRF pERK), A549 cells; assay type: cell-based; details: Homo sapiens, A549, 3 h, 3 hr compound incubation
H460 cells = assay: Inhibition of KRas-mediated phosphorylation of ERK (Cisbio HTRF pERK), H460 cells; assay type: cell-based; details: Homo sapiens; for IC50: NCI-H460, 3 h, 3 hr compound incubation
HCT116 cells = assay: Inhibition of KRas-mediated phosphorylation of ERK (Cisbio HTRF pERK), HCT116 cells; assay type: cell-based; details: Homo sapiens; for IC50: HCT-116, 3 h, 3 hr compound incubation
H358 cells = assay: Inhibition of KRas-mediated phosphorylation of ERK (Cisbio HTRF pERK), H358 cells; assay type: cell-based; details: Homo sapiens, NCI-H358, 3 h, 3 hr compound incubation
KRas G12D = KRas G12D (Homo sapiens, UniProt P01116, G12D); assay: biochemical; details: Binding to KRas (IC50 nM) G12D, TR-FRET displacement, KRas G12D
Sequence of KRas G12D (P01116 1-169 isoform P01116-2 G12D): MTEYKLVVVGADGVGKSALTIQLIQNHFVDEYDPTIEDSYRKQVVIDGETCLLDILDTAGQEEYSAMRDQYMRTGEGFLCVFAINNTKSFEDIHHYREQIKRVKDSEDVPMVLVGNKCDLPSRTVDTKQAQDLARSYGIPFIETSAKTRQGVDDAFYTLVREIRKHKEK

KRas G12V = KRas G12V (Homo sapiens, UniProt P01116, G12V); assay: biochemical; details: Binding to KRas (IC50 nM) G12V, TR-FRET displacement, KRas G12V
Sequence of KRas G12V (P01116 1-169 isoform P01116-2 G12V): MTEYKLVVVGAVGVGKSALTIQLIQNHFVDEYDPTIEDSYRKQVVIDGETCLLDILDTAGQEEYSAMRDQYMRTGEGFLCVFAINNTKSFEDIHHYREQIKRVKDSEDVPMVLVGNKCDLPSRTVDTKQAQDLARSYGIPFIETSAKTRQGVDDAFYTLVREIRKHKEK

KRas G12R = KRas G12R (Homo sapiens, UniProt P01116, G12R); assay: biochemical; details: Binding to KRas (IC50 nM) G12R, TR-FRET displacement, KRas G12R
Sequence of KRas G12R (P01116 1-169 isoform P01116-2 G12R): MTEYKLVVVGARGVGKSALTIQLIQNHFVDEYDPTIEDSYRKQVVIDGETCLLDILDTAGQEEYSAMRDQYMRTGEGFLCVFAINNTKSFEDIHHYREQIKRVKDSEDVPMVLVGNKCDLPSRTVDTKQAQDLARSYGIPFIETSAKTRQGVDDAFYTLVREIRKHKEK

[1] = MKN-1, 3 hr compound incubation
[2] = MKN-1, 3 hour compound incubation, Cisbio pERK HTRF
[3] = 3 hour compound incubation, Cisbio pERK HTRF

Sequence of KRas G12C (P01116 1-169 isoform P01116-2 G12C): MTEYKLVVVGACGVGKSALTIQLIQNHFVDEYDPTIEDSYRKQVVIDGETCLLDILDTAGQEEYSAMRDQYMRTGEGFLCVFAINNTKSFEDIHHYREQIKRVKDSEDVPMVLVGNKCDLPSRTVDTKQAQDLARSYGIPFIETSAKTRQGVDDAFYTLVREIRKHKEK
Sequence of KRas WT (P01116 1-169 isoform P01116-2): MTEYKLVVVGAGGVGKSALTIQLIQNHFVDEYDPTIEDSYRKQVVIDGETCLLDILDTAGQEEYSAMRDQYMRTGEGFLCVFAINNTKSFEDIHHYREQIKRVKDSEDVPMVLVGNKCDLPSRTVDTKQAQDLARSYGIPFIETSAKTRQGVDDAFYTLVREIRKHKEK

Which IC50 (KRas WT) does the source give for C[C@@H]1C[C@@H]1c1c(Cl)cc(O)cc1N1CCc2c(nc(OC[C@@]34CCCN3C[C@H](F)C4)nc2N2CCCn3nc(C(=O)N(C)C)cc3C2)C1 (stereo in doubt) [Example 656, 5-(7-(3-chloro-5-hydroxy-2-(cis-2-methylcyclopropyl)phenyl)-2-(((2R,7aS)-2-fluorotetrahydro-1H-pyrrolizin-7a(5H)-yl)methoxy)-5,6,7,8-tetrahydropyrido[3,4-d]pyrimidin-4-yl)-N,N-dimethyl-5,6,7,8-tetrahydro-4H-pyrazolo[1,5-a][1,4]diazepine-2-carboxamide] here?
The IC50 was 5 nM.

And the IC50 (KRas G12C)?
Its IC50 is 2 nM.

And the IC50 (KRas G12S)?
Its IC50 is 2 nM.

And the IC50 (MKN1 cells; [1])?
Its IC50 is 4.5 nM.

What about the IC50 (PSN1 cells; 3 hr compound incubation) of the same compound?
The IC50 was greater than 10000 nM.

And the IC50 (ASPC1 cells)?
The IC50 was 82 nM.

What about the IC50 (H727 cells) of the same compound?
Its IC50 is 100 nM.

What about the IC50 (A549 cells) of the same compound?
The IC50 was 294 nM.

What about the IC50 (H460 cells) of the same compound?
The IC50 was 307 nM.

And the IC50 (HCT116 cells)?
Its IC50 is 1220 nM.

What about the IC50 (H358 cells) of the same compound?
The IC50 was 54 nM.

And the IC50 (KRas G12D)?
Its IC50 is less than 2 nM.

And the IC50 (KRas G12V)?
Its IC50 is less than 2 nM.

Which results are given for CCc1c(F)ccc2cc(O)cc(N3CCc4c(nc(OCC56CCCN5C/C(=C\F)C6)nc4N4CCC[C@@](C)(O)C4)C3)c12 (stereo partly drawn) [Example 574, (3R)-1-(7-(8-ethyl-7-fluoro-3-hydroxynaphthalen-1-yl)-2-(((Z)-2-(fluoromethylene)tetrahydro-1H-pyrrolizin-7a(5H)-yl)methoxy)-5,6,7,8-tetrahydropyrido[3,4-d]pyrimidin-4-yl)-3-methylpiperidin-3-ol]?
IC50 (KRas WT): < 2 nM; IC50 (KRas G12C): < 2 nM; IC50 (KRas G12S): < 2 nM; IC50 (MKN1 cells; [2]): 0.4 nM; IC50 (PSN1 cells; [3]): 442 nM; IC50 (ASPC1 cells; Cisbio pERK HTRF): 13 nM; IC50 (H727 cells; Cisbio pERK HTRF): 25 nM; IC50 (A549 cells; Cisbio pERK HTRF): 16 nM; IC50 (H460 cells; Cisbio pERK HTRF): 12 nM; IC50 (HCT116 cells; Cisbio pERK HTRF): 18 nM; IC50 (H358 cells; Cisbio pERK HTRF): 5 nM; IC50 (KRas G12D): < 2 nM; IC50 (KRas G12V): < 2 nM

For C[C@@H]1C[C@@H]1c1c(Cl)cc(O)cc1N1CCc2c(nc(OC[C@@]34CCCN3C[C@H](F)C4)nc2N2CCC[C@]3(C2)NC(=O)NC3=O)C1 (stereo in doubt) [Example 653, (R)-7-(7-(3-chloro-5-hydroxy-2-(cis-2-methylcyclopropyl)phenyl)-2-(((2R,7aS)-2-fluorotetrahydro-1H-pyrrolizin-7a(5H)-yl)methoxy)-5,6,7,8-tetrahydropyrido[3,4-d]pyrimidin-4-yl)-1,3,7-triazaspiro[4.5]decane-2,4-dione], which IC50 (KRas WT) is on record?
Its IC50 is less than 2 nM.

What about the IC50 (KRas G12C) of the same compound?
Its IC50 is less than 2 nM.

And the IC50 (KRas G12S)?
The IC50 was less than 2 nM.

And the IC50 (MKN1 cells; [1])?
The IC50 was 2.4 nM.

What about the IC50 (PSN1 cells; 3 hr compound incubation) of the same compound?
The IC50 was 131 nM.

What about the IC50 (ASPC1 cells) of the same compound?
Its IC50 is 70 nM.

And the IC50 (H727 cells)?
The IC50 was 60 nM.

And the IC50 (A549 cells)?
Its IC50 is 17 nM.

What about the IC50 (H460 cells) of the same compound?
Its IC50 is 12 nM.

And the IC50 (HCT116 cells)?
The IC50 was 28 nM.

What about the IC50 (H358 cells) of the same compound?
Its IC50 is 6 nM.

What about the IC50 (KRas G12D) of the same compound?
The IC50 was less than 2 nM.

And the IC50 (KRas G12V)?
The IC50 was less than 2 nM.

Which results are given for CCc1c(F)ccc2cc(O)cc(N3CCc4c(nc(OC[C@@]56CCCN5C[C@H](F)C6)nc4N4CCCCn5nc(C(=O)NC(C)C)c(Cl)c5C4)C3)c12 [Example 506, 3-chloro-5-(7-(8-ethyl-7-fluoro-3-hydroxynaphthalen-1-yl)-2-(((2R,7aS)-2-fluorotetrahydro-1H-pyrrolizin-7a(5H)-yl)methoxy)-5,6,7,8-tetrahydropyrido[3,4-d]pyrimidin-4-yl)-N-isopropyl-4,5,6,7,8,9-hexahydropyrazolo[1,5-a][1,4] diazocine-2-carboxamide]?
IC50 (MKN1 cells; [2]): 9.9 nM; IC50 (PSN1 cells; [3]): 1090 nM; IC50 (ASPC1 cells; Cisbio pERK HTRF): 10 nM; inhibition at 0.1 µM (ASPC1 cells; ASPC1, single point at 100 nM, 3 hrs compound incubation): 97%; IC50 (H727 cells; Cisbio pERK HTRF): 5 nM; inhibition at 0.1 µM (H727 cells; NCI-H727, single point at 100 nM, 3 hrs compound incubation): 80%; IC50 (A549 cells; Cisbio pERK HTRF): 17 nM; IC50 (H460 cells; Cisbio pERK HTRF): 81 nM; inhibition at 0.1 µM (H460 cells; NCI-H460, single point at 100 nM, 3 hrs compound incubation): 71%; IC50 (HCT116 cells; Cisbio pERK HTRF): 298 nM; inhibition at 0.1 µM (HCT116 cells; HCT-116, single point at 100 nM, 3 hrs compound incubation): 34%; IC50 (H358 cells; Cisbio pERK HTRF): 4 nM; IC50 (KRas G12D): < 2 nM; IC50 (KRas G12R): < 2 nM; IC50 (KRas G12V): < 2 nM

Which results are given for CCc1c(F)ccc2cc(O)cc(N3CCc4c(nc(OC[C@@]56CCCN5C[C@H](F)C6)nc4N4CCCn5nc(C(=O)N6CC[C@@H]7C[C@H]6CO7)cc5C4)C3)c12 [Example 624, ((1 S,5R)-6-oxa-2-azabicyclo[3.2.1]octan-2-yl)(5-(7-(8-ethyl-7-fluoro-3-hydroxynaphthalen-1-yl)-2-(((2R,7aS)-2-fluorotetrahydro-1H-pyrrolizin-7a(5H)-yl)methoxy)-5,6,7,8-tetrahydropyrido[3,4-d]pyrimidin-4-yl)-5,6,7,8-tetrahydro-4H-pyrazolo[1,5-a][1,4]diazepin-2-yl)methanone]?
IC50 (MKN1 cells; [1]): 10.5 nM; IC50 (PSN1 cells; 3 hr compound incubation): 2470 nM; IC50 (ASPC1 cells): 4 nM; IC50 (H727 cells): 6 nM; IC50 (A549 cells): 19 nM; IC50 (H460 cells): 22 nM; IC50 (HCT116 cells): 66 nM; IC50 (H358 cells): 4 nM; IC50 (KRas G12D): < 2 nM; IC50 (KRas G12R): < 2 nM; IC50 (KRas G12V): < 2 nM
